Assay results from patent US10406233B2, “Telodendrimers with enhanced drug delivery” (priority 2011, dated 2019).

Tests used:
[1] = system: Subcutaneous Raji lymphoma xenograft; assay: In vivo anti-tumor efficacy study; design: species or system nude mice; conditions: 10 mg/kg DOX i.v. days 0, 4, 8
Description: Lymphoma xenograft mouse models were established by subcutaneously injecting 1×10^7 Raji lymphoma cells in a 100 μL of mixture of PBS and Matrigel (1:1 v/v) at the right flank in female nude mice.

[2] = Toxicity monitoring in the therapeutic study (body weight, blood cell counts, serum chemistry, heart histology); assay type: in vivo, Raji tumor bearing mice
Description: Subcutaneous Raji lymphoma xenograft mouse model was used to evaluate the therapeutic efficacy of different formulations of DOX. When tumor volume reached 150-300 mm^3, mice were intravenously administrated with PBS, DOX.HCl, Doxil®, or DOX-PEG^5k-CA4^αRh4^ε at the dose of 10 mg/kg DOX equivalent (MTD of free DOX) (n=5-8). The treatment was given every four day on days 0, 4 and 8 for total three doses. Tumor sizes were measured with a digital caliper twice per week. Tumor volume was calculated by the formula (L×W^2)/2, where L is the longest, and W is the shortest in tumor diameters (mm). To compare between groups, relative tumor volume (RTV) was calculated at each measurement time point (where RTV equals the tumor volume at given time point divided by the tumor volume prior to initial treatment). For humane reasons, animals were sacrificed when the implanted tumor volume reached 2000 mm^3, which was considered as the end point of survival data. At day 7 after the last dosage, blood samples were obtained from all the mice for the measurement of blood cell counts, hepatic or renal function tests (ALT, AST, and BUN), and serum enzyme markers of cardiotoxicity including creatine kinase (CK) and lactate dehydrogenase (LDH). One mouse from each group was also sacrificed, and its heart was submitted for histopathology evaluation.

[3] = Maximum tolerated dose (MTD) study; conditions: mice, intravenous
[4] = day 7 after last dosage, free DOX vs untreated mice, nanoformulations vs free DOX (P<0.05)

COc1cccc2c1C(=O)c1c(O)c3c(c(O)c1C2=O)C[C@@](O)(C(=O)CO)C[C@@H]3O[C@H]1C[C@H](N)[C@H](O)[C@H](C)O1.Cl [free DOX, Doxorubicin hydrochloride]
median survival time [1]: 32 days
median RTV (relative tumor volume) ([1]; by day 28): 9.9
body weight loss ([2]; 10 mg/kg DOX i.v. days 0, 4, 8): significantly higher
serum level of CK [2, 4]: significantly increased
serum level of LDH [2, 4]: significantly increased
WBC count ([2]; day 7 after the last injection, compared to PBS control): significantly decreased
death ([2]; on day 16): one death
MTD [3]: 10 mg/kg
